Measurements: ChEMBL document CHEMBL4052827, “Discovery of Tetrahydroisoquinoline-Containing CXCR4 Antagonists with Improved in Vitro ADMET Properties” (J Med Chem, 2018)

Key:
[1] = Permeability of the compound at pH 7.4 at 100 uM after 4 hrs by PAMPA
[2] = target: Cytochrome P450 2D6 (Homo sapiens, UniProt P10635); assay: Inhibition of recombinant human CYP2D6 expressed in microsomes of insect cells using AMMC as substrate preincubated for 30 mins followed by NADP addition after 45 mins by fluorescence analysis
Cytochrome P450 2D6, sequence (P10635 whole entry): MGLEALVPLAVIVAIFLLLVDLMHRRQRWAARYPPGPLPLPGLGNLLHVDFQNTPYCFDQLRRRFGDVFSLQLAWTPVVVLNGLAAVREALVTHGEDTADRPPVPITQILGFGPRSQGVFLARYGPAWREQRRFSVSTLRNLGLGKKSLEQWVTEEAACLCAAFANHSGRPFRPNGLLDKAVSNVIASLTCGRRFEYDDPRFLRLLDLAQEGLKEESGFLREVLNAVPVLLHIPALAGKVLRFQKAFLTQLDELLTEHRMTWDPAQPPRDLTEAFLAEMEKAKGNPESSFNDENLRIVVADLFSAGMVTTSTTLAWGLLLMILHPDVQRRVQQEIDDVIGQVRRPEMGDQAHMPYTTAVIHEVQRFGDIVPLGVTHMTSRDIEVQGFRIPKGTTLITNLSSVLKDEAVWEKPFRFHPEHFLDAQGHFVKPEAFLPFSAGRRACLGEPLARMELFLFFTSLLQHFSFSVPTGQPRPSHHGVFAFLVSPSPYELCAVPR

[3] = Agonist activity at mAChR in human CCRF-CEM cells assessed as induction of Ca2+ flux measured for 90 secs by calcium dye-based fluorescence assay; type: cell-based
[4] = target: Cytochrome P450 3A4 (Homo sapiens, UniProt P08684); assay: Inhibition of CYP3A4 (unknown origin)
Cytochrome P450 3A4, sequence (P08684 whole entry): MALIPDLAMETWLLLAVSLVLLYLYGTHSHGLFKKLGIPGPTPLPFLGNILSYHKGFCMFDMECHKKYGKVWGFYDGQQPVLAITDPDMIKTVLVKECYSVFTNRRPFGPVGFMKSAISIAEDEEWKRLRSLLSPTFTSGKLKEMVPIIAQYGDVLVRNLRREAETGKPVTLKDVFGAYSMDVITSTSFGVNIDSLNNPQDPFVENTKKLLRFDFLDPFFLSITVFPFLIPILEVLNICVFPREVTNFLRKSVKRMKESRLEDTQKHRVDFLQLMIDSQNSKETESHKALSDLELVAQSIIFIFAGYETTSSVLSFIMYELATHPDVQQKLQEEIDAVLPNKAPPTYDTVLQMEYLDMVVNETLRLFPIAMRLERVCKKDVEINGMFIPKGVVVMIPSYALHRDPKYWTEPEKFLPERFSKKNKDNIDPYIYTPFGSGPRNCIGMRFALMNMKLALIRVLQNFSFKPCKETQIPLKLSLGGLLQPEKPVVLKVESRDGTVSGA

[5] = target: T1, C-X-C chemokine receptor type 4 (Homo sapiens, UniProt P61073); assay: Antagonist activity at human CXCR4 in CCRF-CEM cells assessed as decrease in SDF-1alpha stimulated Ca2+ flux preincubated for 25 mins followed by SDF-1alpha addition measured for 90 secs by calcium dye-based fluorescence assay; type: functional, cell-based
T1 sequence (P61073 whole entry): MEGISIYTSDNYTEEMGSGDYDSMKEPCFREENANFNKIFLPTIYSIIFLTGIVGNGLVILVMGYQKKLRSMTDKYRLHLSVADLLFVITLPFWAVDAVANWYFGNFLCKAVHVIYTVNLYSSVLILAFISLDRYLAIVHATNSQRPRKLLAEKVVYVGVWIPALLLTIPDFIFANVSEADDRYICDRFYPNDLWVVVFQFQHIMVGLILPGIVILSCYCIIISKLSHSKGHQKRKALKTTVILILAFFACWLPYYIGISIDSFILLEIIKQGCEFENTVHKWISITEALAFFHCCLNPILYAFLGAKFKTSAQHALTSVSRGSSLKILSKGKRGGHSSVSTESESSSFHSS

[6] = target: C-X-C chemokine receptor type 4 (Mus musculus, UniProt P70658); assay: Antagonist activity at mouse CXCR4
C-X-C chemokine receptor type 4 (Mus musculus, UniProt P70658), sequence (P70658 whole entry): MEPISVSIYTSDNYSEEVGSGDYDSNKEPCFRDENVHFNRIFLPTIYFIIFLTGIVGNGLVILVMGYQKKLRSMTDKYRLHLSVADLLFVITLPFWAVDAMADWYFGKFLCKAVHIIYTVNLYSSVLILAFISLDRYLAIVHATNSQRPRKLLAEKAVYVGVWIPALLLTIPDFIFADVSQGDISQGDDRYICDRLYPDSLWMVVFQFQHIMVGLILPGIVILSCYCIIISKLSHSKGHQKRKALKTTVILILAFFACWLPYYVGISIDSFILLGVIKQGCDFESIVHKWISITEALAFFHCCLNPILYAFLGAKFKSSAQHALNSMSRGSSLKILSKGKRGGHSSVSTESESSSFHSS

[7] = target: Cytochrome P450 2C9 (Homo sapiens, UniProt P11712); assay: Inhibition of CYP2C9 (unknown origin)
Cytochrome P450 2C9, sequence (P11712 whole entry): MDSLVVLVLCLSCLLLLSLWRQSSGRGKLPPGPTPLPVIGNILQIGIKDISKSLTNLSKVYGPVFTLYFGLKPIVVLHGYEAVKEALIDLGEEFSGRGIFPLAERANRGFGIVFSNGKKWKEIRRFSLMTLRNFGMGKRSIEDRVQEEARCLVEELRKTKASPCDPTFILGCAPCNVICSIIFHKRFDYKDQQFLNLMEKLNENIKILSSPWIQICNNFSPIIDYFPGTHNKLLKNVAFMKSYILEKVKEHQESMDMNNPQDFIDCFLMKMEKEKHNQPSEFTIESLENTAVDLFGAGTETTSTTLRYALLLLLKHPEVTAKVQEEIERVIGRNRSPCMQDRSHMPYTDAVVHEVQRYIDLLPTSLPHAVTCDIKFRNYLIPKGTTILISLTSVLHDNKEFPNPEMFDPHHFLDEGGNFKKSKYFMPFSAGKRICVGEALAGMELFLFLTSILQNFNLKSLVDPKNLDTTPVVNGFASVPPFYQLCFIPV

[8] = target: Cytochrome P450 2C19 (Homo sapiens, UniProt P33261); assay: Inhibition of CYP2C19 (unknown origin)
Cytochrome P450 2C19, sequence (P33261 whole entry): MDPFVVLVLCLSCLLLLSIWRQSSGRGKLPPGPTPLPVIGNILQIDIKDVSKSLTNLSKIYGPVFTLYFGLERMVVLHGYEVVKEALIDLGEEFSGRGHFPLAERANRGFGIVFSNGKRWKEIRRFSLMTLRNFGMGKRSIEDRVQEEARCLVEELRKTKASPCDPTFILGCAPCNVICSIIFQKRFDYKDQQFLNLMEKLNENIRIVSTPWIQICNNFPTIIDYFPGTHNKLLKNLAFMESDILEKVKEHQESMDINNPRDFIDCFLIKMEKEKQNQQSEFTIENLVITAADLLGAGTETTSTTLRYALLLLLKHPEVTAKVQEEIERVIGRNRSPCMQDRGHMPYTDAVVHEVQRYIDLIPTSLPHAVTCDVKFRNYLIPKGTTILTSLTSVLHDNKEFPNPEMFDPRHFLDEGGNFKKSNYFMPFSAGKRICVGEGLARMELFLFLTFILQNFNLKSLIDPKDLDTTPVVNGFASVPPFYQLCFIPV

[9] = Permeability of the compound at pH 5.5 at 100 uM after 4 hrs by PAMPA
[10] = Metabolic stability in human liver microsomes assessed as parent compound remaining at 0.5 uM after 10 mins in presence of NADPH by LC-MS/MS analysis
[11] = Metabolic stability in mouse liver microsomes assessed as parent compound remaining at 0.5 uM after 10 mins in presence of NADPH by LC-MS/MS analysis
[12] = target: T1, C-X-C chemokine receptor type 4; assay: Agonist activity at CXCR4 in human CCRF-CEM cells assessed as induction of Ca2+ flux measured for 90 secs by calcium dye-based fluorescence assay; type: functional, cell-based
[13] = Inhibition of CYP1A4 (unknown origin)
[14] = target: T2, Cytochrome P450 2C8 (Homo sapiens, UniProt P10632); assay: Inhibition of CYP2C8 (unknown origin)
T2 sequence (P10632 whole entry): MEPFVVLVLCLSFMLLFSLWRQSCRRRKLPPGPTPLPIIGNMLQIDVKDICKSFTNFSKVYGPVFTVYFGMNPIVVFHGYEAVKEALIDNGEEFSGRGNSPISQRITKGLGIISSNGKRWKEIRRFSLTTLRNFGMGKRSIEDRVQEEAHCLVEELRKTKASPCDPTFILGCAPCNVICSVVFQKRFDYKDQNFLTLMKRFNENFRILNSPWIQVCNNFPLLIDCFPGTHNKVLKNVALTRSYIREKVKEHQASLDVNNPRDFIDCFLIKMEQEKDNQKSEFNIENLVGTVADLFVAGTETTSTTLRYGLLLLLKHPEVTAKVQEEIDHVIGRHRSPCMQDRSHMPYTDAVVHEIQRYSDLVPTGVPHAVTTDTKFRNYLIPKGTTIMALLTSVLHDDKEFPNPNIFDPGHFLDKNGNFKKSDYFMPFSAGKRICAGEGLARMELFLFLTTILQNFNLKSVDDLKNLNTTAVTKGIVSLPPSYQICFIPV

[15] = Antagonist activity at mAChR in human CCRF-CEM cells assessed as decrease in acetylacholine-stimulated Ca2+ flux preincubated for 25 mins followed by acetylacholine addition measured for 90 secs by calcium dye-based fluorescence assay; type: cell-based
[16] = species: Homo sapiens; assay: Inhibition of chemokine receptor (unknown origin) at 10 uM
[17] = Half life in human liver microsomes; type: ADME, microsome
[18] = Half life in rat Plasma; type: ADME, cell-free

| SMILES | Papp at 4 h, 100 µM [1] | IC50 [2] | EC50 [3] | IC50 [4] | IC50 [5] | IC90 [5] | IC50 [6] | IC50 [7] | IC50 [8] | Papp at 4 h, 100 µM [9] | remaining at 10 min, 0.5 µM [10] | remaining at 10 min, 0.5 µM [11] | EC50 [12] | IC50 [13] | IC50 [14] | IC50 [15] | inhibition [16] | half-life [17] | half-life [18] |
| --- | --- | --- | --- | --- | --- | --- | --- | --- | --- | --- | --- | --- | --- | --- | --- | --- | --- | --- | --- |
| CC(C)(CCN(C[C@H]1Cc2ccccc2CN1)[C@H]1CCCc2cccnc21)CNC1CCOCC1 | 5.7 ×10⁻⁶ cm/s | 6.21 µM | > 30 µM | 17.7 µM | 0.0363 µM | 0.416 µM | 0.02 µM | < 5 µM | < 5 µM | 5.7 ×10⁻⁶ cm/s | 21.8% | 49.8% | > 30 µM | < 5 µM | < 5 µM | 11.5 µM | – | – | – |
| CC1(C)CCC(NCC(C)(C)CCN(C[C@H]2Cc3ccccc3CN2)[C@H]2CCCc3cccnc32)CC1 | 2.8 ×10⁻⁶ cm/s | 2.22 µM | > 30 µM | 7.83 µM | 0.541 µM | – | – | < 5 µM | < 5 µM | 1.1 ×10⁻⁶ cm/s | 23.9% | 51.1% | > 30 µM | < 5 µM | < 5 µM | 18.8 µM | – | – | – |
| CC(C)(CN)CCN(C[C@H]1Cc2ccccc2CN1)[C@H]1CCCc2cccnc21 | 40.5 ×10⁻⁶ cm/s | 0.498 µM | > 30 µM | > 20 µM | 0.069 µM | – | – | – | – | – | 88.7% | 51.2% | > 30 µM | – | – | > 16.7 µM | – | – | – |
| CC(C)(N)CCCN(C[C@H]1Cc2ccccc2CN1)[C@H]1CCCc2cccnc21 | – | 0.345 µM | > 30 µM | > 20 µM | 0.0246 µM | – | – | – | – | 2 ×10⁻⁶ cm/s | 73.5% | 3.32% | > 30 µM | – | – | > 16.7 µM | – | – | – |
| NCCCCN(C[C@H]1Cc2ccccc2CN1)[C@H]1CCCc2cccnc21 | – | – | > 30 µM | – | – | 0.0326 µM | – | – | – | 0.6 ×10⁻⁶ cm/s | – | – | – | – | – | > 30 µM | < 10% | 1 h | 6 h |
| CC(C)(CCN)CN(C[C@H]1Cc2ccccc2CN1)[C@H]1CCCc2cccnc21 | 25.5 ×10⁻⁶ cm/s | 0.197 µM | > 30 µM | 10.8 µM | > 33.3 µM | – | – | – | – | 26.8 ×10⁻⁶ cm/s | 76.1% | 5.22% | > 30 µM | – | – | > 33.3 µM | – | – | – |
| NC/C=C\CN(C[C@H]1Cc2ccccc2CN1)[C@H]1CCCc2cccnc21 | 56.9 ×10⁻⁶ cm/s | 0.333 µM | > 30 µM | – | 0.00926 µM | – | – | – | – | 3.9 ×10⁻⁶ cm/s | 100% | 4.36% | > 30 µM | – | – | 0.605 µM | – | – | – |
| C(=C\CN(C[C@H]1Cc2ccccc2CN1)[C@H]1CCCc2cccnc21)/CNCC1CCOCC1 | 12.2 ×10⁻⁶ cm/s | 3.32 µM | > 30 µM | – | – | 0.195 µM | 0.00547 µM | < 5 µM | < 5 µM | 3.35 ×10⁻⁶ cm/s | 74.5% | 32.3% | > 30 µM | < 5 µM | < 5 µM | 19.9 µM | – | – | – |
| c1ccc2c(c1)CN[C@@H](CN(CCCCNC1CCSCC1)[C@H]1CCCc3cccnc31)C2 | 0.2 ×10⁻⁶ cm/s | 0.434 µM | > 30 µM | – | 0.0547 µM | – | – | – | – | 4.6 ×10⁻⁶ cm/s | 39.9% | 23.2% | > 30 µM | – | – | > 33.3 µM | – | – | – |
| CC1(C)CCC(NC/C=C/CN(C[C@H]2Cc3ccccc3CN2)[C@H]2CCCc3cccnc32)CC1 | – | 0.66 µM | > 30 µM | 0.99 µM | – | – | – | – | – | – | 42% | 7.71% | > 30 µM | – | – | 2.45 µM | – | – | – |

Next, values leading:

| Papp at 4 h, 100 µM [1] | IC50 [2] | EC50 [3] | IC50 [4] | IC50 [5] | IC90 [5] | IC50 [6] | IC50 [7] | IC50 [8] | Papp at 4 h, 100 µM [9] | remaining at 10 min, 0.5 µM [10] | remaining at 10 min, 0.5 µM [11] | EC50 [12] | IC50 [13] | IC50 [14] | IC50 [15] | inhibition [16] | half-life [17] | half-life [18] | SMILES |
| --- | --- | --- | --- | --- | --- | --- | --- | --- | --- | --- | --- | --- | --- | --- | --- | --- | --- | --- | --- |
| 77.4 ×10⁻⁶ cm/s | 0.12 µM | > 30 µM | 0.622 µM | 0.832 µM | – | – | – | – | 18 ×10⁻⁶ cm/s | 0.521% | 1.55% | > 30 µM | – | – | 11.4 µM | – | – | – | c1ccc2c(c1)CN[C@@H](CN(CCCCN(Cc1ccncc1)Cc1ccncc1)[C@H]1CCCc3cccnc31)C2 |
| 2.2 ×10⁻⁶ cm/s | 2.04 µM | > 30 µM | – | 0.168 µM | – | – | < 5 µM | < 5 µM | 1.75 ×10⁻⁶ cm/s | 16.1% | 16.8% | > 30 µM | < 5 µM | < 5 µM | 18.8 µM | – | – | – | CC(C)(CCN(C[C@H]1Cc2ccccc2CN1)[C@H]1CCCc2cccnc21)CNC1CCC(F)(F)CC1 |
| 21.4 ×10⁻⁶ cm/s | 0.318 µM | > 30 µM | – | 0.0508 µM | – | – | – | – | 18.4 ×10⁻⁶ cm/s | 50.5% | 1.29% | > 30 µM | – | – | 1.2 µM | – | – | – | NCc1ccccc1CN(C[C@H]1Cc2ccccc2CN1)[C@H]1CCCc2cccnc21 |
| 43.4 ×10⁻⁶ cm/s | 2.61 µM | > 30 µM | – | – | 0.191 µM | 0.00924 µM | < 5 µM | < 5 µM | 10.5 ×10⁻⁶ cm/s | 69.9% | 10% | > 30 µM | < 5 µM | < 5 µM | 5.61 µM | – | – | – | C(=C\CN(C[C@H]1Cc2ccccc2CN1)[C@H]1CCCc2cccnc21)/CNC1CCOCC1 |
